Each block holds one molecule with its values, some of them ahead of it.
Assays:
[1] = tested on: HFpEF; settings: in vivo; cited from earlier work
[2] = Saturated solubility of Milrinone in different buffers; type: physicochemical; settings: pH 1.2 to 7.4 buffers
Description: Aim: To perform the saturated solubility of Milrinone in different buffers.
1. pH 1.2—Hydrochloric Acid Buffer
3. pH 6.8—Phosphate Buffer
4. pH 7.4—Phosphate Buffer.
• 1. 2 mL buffer solution is placed into a 8 mL USP Type I clear glass vial (with screw cap and PTFE septa) • 2. 10 mg of Milrinone is added in each vial and the vial is shaken to dissolve the compound. • 3. The addition of Milrinone is continued till the formation of saturated solution. • 4. The pH of the saturated solution is measured after the addition of Milrinone. • 5. If there is any difference in pH more than 0.1 units is observed when compared to the initial pH, the pH was adjusted with acid or base respectively to bring it to the initial pH. • 6. The vials are closed with screw cap and kept for mixing using rotary tube shaker for 24 h. Note: The vials are observed at frequent intervals and if the solution is clear, further amount of Milrinone is added to make a saturated solution.

[3] = tested on: HFpEF patients; settings: cited from earlier work
[4] = tested on: HFpEF patients; settings: cited from earlier work; remark: listed apart in the source
[5] = tested on: HFpEF patients; settings: cited from earlier work; remark: listed apart in the source

Structure (SMILES): C[C@H]1O[C@@H](O[C@H]2[C@@H](O)C[C@H](O[C@H]3[C@@H](O)C[C@H](O[C@H]4CC[C@@]5(C)[C@H](CC[C@@H]6[C@@H]5C[C@@H](O)[C@]5(C)[C@@H](C7=CC(=O)OC7)CC[C@]65O)C4)O[C@@H]3C)O[C@@H]2C)C[C@H](O)[C@@H]1O [digoxin]
Benefit as therapy for HFpEF [1]: little or no conclusive benefit

Solubility as a function of pH (in words) [2]: highly soluble in acidic pH
Structure (SMILES): Cc1[nH]c(=O)c(C#N)cc1-c1ccncc1 [Milrinone, 1,2-dihydro-3-cyano-6-methyl-5-(4-pyridinyl)-2(1H)-pyridinone]

Structure (SMILES): CC(=O)S[C@@H]1CC2=CC(=O)CC[C@]2(C)[C@H]2CC[C@@]3(C)[C@@H](CC[C@@]34CCC(=O)O4)[C@H]12 [spironolactone]
Left ventricular diastolic function [3]: improved left ventricular diastolic function | Maximal exercise capacity, patient symptoms or quality of life [3]: did not affect

Structure (SMILES): CCCc1nn(C)c2c(=O)[nH]c(-c3cc(S(=O)(=O)N4CCN(C)CC4)ccc3OCC)nc12 [sildenafil]
Exercise capacity or clinical status [4]: did not result in improvement

Structure (SMILES): COc1ccccc1OCC(O)CN1CCN(CC(=O)Nc2c(C)cccc2C)CC1 (stereo not drawn) [Ranolazine]
Echocardiographic parameters or exercise performance [5]: did not result in a change

Source: patent US11291660B2, “Method of treating heart failure with preserved ejection fraction by administering milrinone” (Baker Heart and Diabetes Institute, priority 2014, dated 2022)
